Patent US4814340A, “1,4-diaryl alkane derivatives having insecticidal and acaricidal activity” (priority 1982, dated 1989)
Where a name gives a salt, the structure may show the parent alone. Read-outs that look alike come from different tables or passages of the source.

Legend:
[1] = system: yearling carps; test: Test 5 (Fish Toxicity); type: in vivo, carp
Method: (§1) Compounds (a) through (g) described below were tested as comparative compounds in the same manner as the compounds of the present invention. All the tests were doubly carried out. Namely, each result was expressed by an average value of two data.
A water tank having a width of 60 cm, a length of 30 cm and a height of 40 cm was filled with water, and 10 yearling carps having a body length of about 5 cm were set free in the tank and adapted to the environment in the tank. An acetone solution of a test compound was applied into water so as to become a concentration of 1 or 0.1 ppm in water by adding said acetone solution at a rate of one part by volume per 100 parts by volume of water. 48 hours after, the number of killed and living carps was counted and the effect of a test compound on carps was examined.

[2] = system: green rice leafhopper (female adults); test: Test 2 (Effect on Green Rice Leafhopper); type: in vivo; conditions: Nephotettix cincticeps
Method: as §1
Four or five seedlings of paddy rice with three leaves were bundled, and thereon the same dilution of the emulsifiable concentrate as used in Test 1 was sprayed in an amount of 3 ml. The bundle was dried and covered with a metal net cylinder, and 10 female adults of green rice leafhopper were set free in the cylinder. 48 hours after, the number of killed adults was counted.

[3] = system: common cutworm (third-instar larvae); test: Test 1 (Effect on Common Cutworm); type: in vivo; conditions: Spodoptera litura
Method: as §1
The emulsifiable concentrate of the test compound, prepared according to the method described in Formulation Example 1, was diluted with water to a specified concentration. Sweet potato leaves were sufficiently immersed in the dilution. The sweet potato leaves were dried and placed in a plastic cup having a diameter of 10 cm, and 10 third-instar larvae of common cutworm were set free in each cup. 48 hours after, the numbers of killed and living larvae were counted and the mortality was calculated.

[4] = system: German cockroach (female adults); test: Test 3 (Effect on German Cockroach); type: in vivo, Blatella germanica (German cockroach); conditions: Blattella germanica
Method: as §1
One ml of an acetone solution of a test compound of a specified concentration was poured in a high Petri dish having a diameter of 9 cm and a height of 9 cm. The Petri dish was allowed to stand, and thereby the acetone was evaporated. The upper part of the inner wall of the Petri dish was treated with butter to prevent the adults of German cockroach from escaping from the Petri dish. 10 female adults of German cockroach were set free in each Petri dish. 48 hours after, the number of killed adults was counted.

[5] = 20 ppm, 48 hours, female adults, read-out: Mortality (%)
[6] = 100 ppm, 48 hours, female adults, read-out: Mortality (%)
[7] = 20 ppm, 48 hours, third-instar larvae, read-out: Mortality (%)
[8] = 100 ppm, 48 hours, third-instar larvae, read-out: Mortality (%)
[9] = 1 mg/m^2, 48 hours, female adults, read-out: Mortality (%)
[10] = 5 mg/m^2, 48 hours, female adults, read-out: Mortality (%)

| SMILES | Mortality(%) 48 Hours After ([1]; 0.1 ppm in water) | Mortality(%) 48 Hours After ([1]; 1 ppm in water) | mortality at 20 ppm [2, 5] | mortality at 100 ppm [2, 6] | mortality at 20 ppm [3, 7] | mortality at 100 ppm [3, 8] | also measured |
| --- | --- | --- | --- | --- | --- | --- | --- |
| CC(C)(CCCc1cccc(Oc2ccccc2)c1)c1ccc(Cl)c(Cl)c1 [Compound 26] | 0% | 0% | 50% | 100% |  |  |  |
| C#CCOc1ccc(C(C)(C)CCCc2cccc(Oc3ccccc3)c2)cc1 [Compound 45] |  |  | 80% | 100% | 80% | 100% |  |
| CC(C)(CCCc1cccc(Oc2ccccc2)c1)c1ccc2ccccc2c1 [Compound 18, 1-(3-Phenoxyphenyl)-4-(2-naphthyl)-4-methylpentane] | 0% | 0% | 100% | 100% |  |  |  |
| CCCOc1ccc(C(C)(C)CCCc2cccc(Oc3ccccc3)c2)cc1 [Compound 33] | 0% | 0% | 100% | 100% |  |  |  |
| Cc1ccc(C(C)(C)CCCc2cccc(Oc3ccccc3)c2)cc1 [Compound 1, 1-(3-phenoxyphenyl)-4-(4-methylphenyl)-4-methylpentane] | 0% | 0% |  |  | 100% | 100% | mortality at 1 mg/m2 [4, 9]: 80%; mortality at 5 mg/m2 [4, 10]: 100% |
| COc1ccc(C(C)(C)CCCc2ccc(F)c(Oc3ccccc3)c2)cc1 [Compound 6, 1-(3-phenoxy-4-fluorophenyl)-4-(4-methoxyphenyl)-4-methylpentane] | 0% | 0% | 100% | 100% | 100% | 100% | mortality at 1 mg/m2 [4, 9]: 100%; mortality at 5 mg/m2 [4, 10]: 100% |
| CC(C)(CCCc1cccc(Oc2ccccc2)c1)c1ccc(OC(F)=CCl)cc1 [Compound 37] |  |  |  |  | 80% | 100% |  |
| CCOc1ccc(C(C)(C)CCCc2ccc(F)c(Oc3ccc(F)cc3)c2)cc1 [Compound 55] | 0% | 0% | 100% | 100% | 100% | 100% | mortality at 1 mg/m2 ([4]; 48 h): 100%; mortality at 5 mg/m2 ([4]; 48 h): 100% |
| CC(C)(CCCc1cccc(Oc2ccccc2)c1)c1ccc(Oc2ccccc2)cc1 [Compound 46] |  |  | 100% | 100% | 85% | 100% |  |
| COc1ccc(C(C)(C)CCCc2cccc(Oc3ccccc3)c2)cc1 [Compound 5, 1-(3-phenoxyphenyl)-4-(4-methoxyphenyl)-4-methylpentane] | 0% | 0% | 100% | 100% |  |  |  |
| CCC(CCCc1cccc(Oc2ccccc2)c1)c1ccc(Cl)cc1 (stereo not shown) [Compound 23] | 0% | 0% | 75% | 100% |  |  |  |
| CCOc1ccc(C(C)(C)CCCc2ccc(F)c(Oc3ccc(F)cc3)c2)cc1Cl [Compound 67] | 0% | 0% | 100% | 100% | 60% | 100% |  |
| CC(C)(CCCc1cccc(Oc2ccccc2)c1)c1ccc(C#N)cc1 [Compound 58, 1-(3-Phenoxyphenyl)-4-(4-cyanophenyl)-4-methylpentane] |  |  | 100% | 100% | 80% | 100% |  |
| Cc1ccc(C(C)(C)CCCc2ccc(F)c(Oc3ccccc3)c2)cc1 [Compound 29] |  |  |  |  | 100% | 100% | mortality at 1 mg/m2 [4, 9]: 100%; mortality at 5 mg/m2 [4, 10]: 100% |
| CC(C)(CCCc1cccc(Oc2ccccc2)c1)c1ccc(Cl)cc1 [Compound 8, 1-(3-phenoxyphenyl)-4-(4-chlorophenyl)-4-methylpentane] | 0% | 0% | 100% | 100% | 95% | 100% |  |
| CCOc1ccc(C(C)(C)CCCc2ccc(F)c(Oc3ccccc3)c2)cc1 [Compound 3, 1-(3-phenoxy-4-fluorophenyl)-4-(4-ethoxyphenyl)-4-methylpentane] |  |  | 100% | 100% | 100% | 100% |  |
| CCOc1ccc(C(C)(C)CCCc2cccc(Oc3ccc(F)cc3)c2)cc1 [Compound 41] | 0% | 0% | 100% | 100% |  |  |  |
| CC(C)(CCCc1ccc(F)c(Oc2ccccc2)c1)c1ccccc1 [Compound 27] |  |  | 100% | 100% | 100% | 100% | mortality at 1 mg/m2 ([4]; 48 h): 100%; mortality at 5 mg/m2 ([4]; 48 h): 100% |
| CC(C)(CCCc1cccc(Oc2ccccc2)c1)c1ccc(C=C(Cl)Cl)cc1 [Compound 63] |  |  | 100% | 100% | 70% | 100% |  |
| CC(C)(CCCc1cccc(Oc2ccccc2)c1)c1ccccc1 [Compound 17] | 0% | 0% | 95% | 100% | 50% | 100% |  |
| CCOP(=S)(OCC)Oc1cc(C)nc(C(C)C)n1 [(c), Diazinon, reference compound] |  |  |  |  |  |  | mortality at 20 ppm ([2]; 48 h): 10%; mortality at 100 ppm ([2]; 48 h): 80%; mortality at 1 mg/m2 ([4]; 48 h): 0%; mortality at 5 mg/m2 ([4]; 48 h): 80% |
| CC(C)(CCCc1cccc(Oc2ccccc2)c1)c1ccc2c(c1)OCO2 [Compound 4, 1-(3-phenoxyphenyl)-4-(3,4-methylenedioxyphenyl)-4-methylpentane] | 0% | 0% |  |  | 100% | 100% | mortality at 1 mg/m2 [4, 9]: 40%; mortality at 5 mg/m2 [4, 10]: 100% |
| CNC(=O)ON=C(C)SC [(d), Methomyl, reference compound] |  |  |  |  |  |  | mortality at 20 ppm ([3]; 48 h): 80%; mortality at 100 ppm ([3]; 48 h): 100% |
| CC(C)(CCCc1cccc(Oc2ccccc2)c1)c1cccc(Cl)c1 [Compound 21] | 0% | 0% | 100% | 100% |  |  |  |
| CCOc1ccc(C2(CCCc3cccc(Oc4ccccc4)c3)CCC2)cc1 [Compound 31, 1-(3-Phenoxyphenyl)-3-[1-(4-ethoxyphenyl)cyclobutyl]propane] |  |  | 100% | 100% |  |  | mortality at 1 mg/m2 [4, 9]: 100%; mortality at 5 mg/m2 [4, 10]: 100% |
| Oc1c(Cl)c(Cl)c(Cl)c(Cl)c1Cl [(f), PCP sodium salt, reference compound] | 55% | 100% |  |  |  |  |  |
| CCOc1ccc(C2(CCCc3ccc(F)c(Oc4ccccc4)c3)CCC2)cc1 [Compound 38, 1-(3-Phenoxy-4-fluorophenyl)-3-[1-(4-ethoxyphenyl)cyclobutyl]propane] | 0% | 0% | 100% | 100% |  |  |  |
| CC(C)(CCCc1cccc(Oc2ccccc2)c1)c1ccc(OC(F)(F)C(F)F)cc1 [Compound 65] |  |  | 100% | 100% | 100% | 100% | mortality at 1 mg/m2 [4, 9]: 30%; mortality at 5 mg/m2 [4, 10]: 95% |
| CCOP(=S)(OCC)Oc1ccc(=O)n(-c2ccccc2)n1 [(b), 0,0-diethyl-0-(3-oxo-2-phenyl-2H-pyridazin-6-yl)-phosphorothioate, reference compound] |  |  |  |  |  |  | mortality at 20 ppm ([2]; 48 h): 90%; mortality at 100 ppm ([2]; 48 h): 100%; mortality at 1 mg/m2 [4, 9]: 0%; mortality at 5 mg/m2 [4, 10]: 10% |
| CC(C)(CCCc1cccc(Oc2ccccc2)c1)c1ccc(OC(F)F)cc1 [Compound 32] |  |  | 100% | 100% | 100% | 100% |  |
